Test: Evaluation of metabolic stability in human liver microsomes
Type: in vitro ADME
Conditions: for half-life at 1 μM: in vitro t1/2, 0.5 mg/mL human liver microsomes, 1 μM test compound, 2 mM NADPH, pH 7.4, 37° C., 0-30 minutes, average of two experiments, read-out: Half-life (t1/2) (min) ± SD; for Increase over Silodosin (%): increase of HLM half-life relative to silodosin
Method: Evaluation of Metabolic Stability in Human Liver Microsomes. Human liver microsomes (“HLM”; 20 mg/mL) were obtained from Xenotech, LLC (Lenexa, Kans.). β-nicotinamide adenine dinucleotide phosphate, reduced form (NADPH), magnesium chloride (MgCl2), and dimethyl sulfoxide (DMSO) were purchased from Sigma-Aldrich.
Stock solutions of Compounds 108, 110, 111 and silodosin (7.5 mM) were separately prepared in DMSO. The 7.5 mM stock solutions were diluted to 50 μM in acetonitrile (ACN). The 20 mg/mL human liver microsomes were diluted to 0.625 mg/mL in 0.1 M potassium phosphate buffer, pH 7.4, containing 3 mM MgCl2. The diluted microsomes (375 μL) were added to wells of a 96-well deep-well polypropylene plate in triplicate. Ten μL of the 50 μM test compound solution was added to the microsomes and the mixture was pre-warmed for 10 minutes. Reactions were initiated by addition of 125 μL, of pre-warmed NADPH solution (8 mM NADPH in 0.1M potassium phosphate buffer, pH 7.4, containing 3 mM MgCl2). The final reaction volume was 0.5 mL and contains 0.5 mg/mL human liver microsomes, 1 μM test compound, and 2 mM NADPH in 0.1 M potassium phosphate buffer, pH 7.4, and 3 mM MgCl2. The reaction mixtures were incubated at 37° C., and 50 μL aliquots were removed at 0, 5, 10, 20, and 30 minutes and added to shallow-well 96-well plates which contain 50 μL of ice-cold ACN with internal standard to stop the reactions. The plates were stored at 4° C. for 20 minutes after which 100 μL of water was added to the wells of the plate before centrifugation to pellet precipitated proteins. Supernatants were transferred to another 96-well plate and analyzed for amounts of parent remaining by LC-MS/MS using an Applied Bio-systems API 4000 mass spectrometer.
The in vitro t1/2s for test compounds were calculated from the slopes of the linear regression of % parent remaining (ln) vs incubation time relationship. in vitro t1/2=0.693/k, where k=−[slope of linear regression of % parent remaining(ln) vs incubation time]. The experiment was performed twice. Data analysis was performed using Microsoft Excel Software.

Row | half-life at 1 μM | Increase over Silodosin (%) | Compound
1 | 43 ± 10 min | 17% | [2H]C([2H])(N[C@H](C)Cc1cc2c(c(C(N)=O)c1)N(CCCO)CC2)C([2H])([2H])Oc1ccccc1OC([2H])([2H])C(F)(F)F [Compound 110, (R)-1-(3-hydroxypropyl)-5-(2-(2-(2-(2,2,2-d2-trifluoroethoxy)phenoxy)-d4-ethylamino)propyl)indoline-7-carboxamide]
2 | 37 ± 0.1 min | – | C[C@H](Cc1cc2c(c(C(N)=O)c1)N(CCCO)CC2)NCCOc1ccccc1OCC(F)(F)F [Silodosin, (R)-1-(3-hydroxypropyl)-5-(2-(2-(2-(2,2,2-trifluoroethoxy)phenoxy)ethylamino)-propyl)indoline-7-carboxamide, reference compound]
3 | 44 ± 1.2 min | 21% | [2H]C([2H])(O)C([2H])([2H])C([2H])([2H])N1CCc2cc(C[C@@H](C)NC([2H])([2H])C([2H])([2H])Oc3ccccc3OC([2H])([2H])C(F)(F)F)cc(C(N)=O)c21 [Compound 108, (R)-1-(3-Hydroxy-(1,1,2,2,3,3-d6)-propyl)-5-(2-(2-(2-(2,2,2-trifluoro-1,1-d2-ethoxy)phenoxy)-(1,1,2,2-d4)-ethylamino)propyl)indoline-7-carboxamide]
4 | 32 ± 0.1 min | 0% | [2H]C([2H])(O)C([2H])([2H])C([2H])([2H])N1CCc2cc(C[C@@H](C)NCCOc3ccccc3OCC(F)(F)F)cc(C(N)=O)c21 [Compound 111, (R)-1-(3-Hydroxy-(1,1,2,2,3,3-d6)-propyl)-5-(2-(2-(2-(2,2,2-trifluoroethoxy)-phenoxy)ethylamino)propyl)indoline-7-carboxamide]
